Target: T1, Ito (Kv4.3) (Homo sapiens, UniProt Q9UK17)
T1 construct: endogenous in cells; host or cells: freshly isolated human atrial myocytes
T1 sequence (Q9UK17 1-655): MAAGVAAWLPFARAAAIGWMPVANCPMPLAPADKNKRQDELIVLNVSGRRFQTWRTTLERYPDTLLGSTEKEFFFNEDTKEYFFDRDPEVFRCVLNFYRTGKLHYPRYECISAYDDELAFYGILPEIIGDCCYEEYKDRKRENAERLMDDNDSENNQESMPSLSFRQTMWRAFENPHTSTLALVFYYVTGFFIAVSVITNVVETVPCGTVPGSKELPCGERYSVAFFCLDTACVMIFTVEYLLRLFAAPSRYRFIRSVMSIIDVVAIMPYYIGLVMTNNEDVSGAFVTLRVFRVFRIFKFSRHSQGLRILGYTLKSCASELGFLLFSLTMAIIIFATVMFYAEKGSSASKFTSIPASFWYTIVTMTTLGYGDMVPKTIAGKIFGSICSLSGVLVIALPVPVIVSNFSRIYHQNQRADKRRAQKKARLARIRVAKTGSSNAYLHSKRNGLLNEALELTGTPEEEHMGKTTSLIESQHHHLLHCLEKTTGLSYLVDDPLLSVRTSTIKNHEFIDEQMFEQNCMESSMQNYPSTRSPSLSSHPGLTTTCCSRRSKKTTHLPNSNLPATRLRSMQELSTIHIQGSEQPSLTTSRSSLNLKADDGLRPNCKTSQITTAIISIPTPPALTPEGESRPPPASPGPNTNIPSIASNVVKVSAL
T1 sequence (Q9NS61 1-270 partner): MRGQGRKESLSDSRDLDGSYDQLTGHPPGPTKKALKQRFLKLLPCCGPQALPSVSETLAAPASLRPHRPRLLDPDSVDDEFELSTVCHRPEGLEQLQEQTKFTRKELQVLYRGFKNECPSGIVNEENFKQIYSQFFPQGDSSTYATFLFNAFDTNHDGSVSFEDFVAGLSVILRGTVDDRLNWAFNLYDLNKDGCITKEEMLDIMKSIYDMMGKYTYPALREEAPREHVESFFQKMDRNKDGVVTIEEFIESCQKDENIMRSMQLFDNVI
Test: Whole-cell patch clamp in human atrial myocytes: Ito
Type: cell-based
Description: The blocking profile of the compounds of the invention is determined on the following channels of the human atrial myocytes: INa, Ito, Isus and IK1 channel currents.
Human atrial myocytes: Myocytes were prepared from specimens with grossly normal anatomical aspect, excised from hearts of patients with normal P-wave electrocardiogram, undergoing bypass surgery. Human atrial sample were obtained following approval by the ethical committee. […]
Experiments were performed at room temperature (20-25° C.) for INa and at 32-34° C. for Ito, Isus, IK1. Currents were measured using the whole-cell variant of the patch clamp method. […]
After rupture of the cell membrane to enter the whole-cell mode, current amplitude and kinetics were allowed to stabilize for 3-7 min before initiating the experimental procedure. K^+ currents recorded from human atrial myocytes were elicited by a 500 ms pulse to +60 mV from a holding potential of −50 mV for Ito and Isus. Ito was measured as a peak current amplitude whereas Isus as a current present at the end of the 500 ms voltage pulse. In addition, the area under the curve, before and after compound, were measured over the course of the pulse period. […]

Block at 10 μM in %: Ito (Kv4.3) (10 μM, n = 3 cells): 82.0 ± 3.6%
IC50 (dose-response analysis, read-out: IC50 on the ITO current): 800 nM
SMILES: COc1ccccc1Nc1nc(C)c(C(=O)N[C@H]2CCC[C@@H]2OCc2ccccc2)s1 [Compound 68, 2-(2-methoxy-phenylamino)-4-methyl-thiazole-5-carboxylic acid (1S,2S)-2-(benzyloxycyclopent-1-yl) amide]

Source: patent publication US20080125432A1 (Devgen NV, priority 2004, published 2008)
